Assay results as given in patent US12643913B2, “Mcl-1 inhibitor formulations” (AMGEN INC., priority 2020, dated 2026).
≈ marks a conversion by molar mass, not a printed value. Like-named read-outs stand apart in the source and are kept apart here.

Assays:
[1] = Stability of AMG 397 in THF and DCM solution at 1 mg/mL, room temperature, amber and clear vials (peak area % at 280 nm); type: physicochemical; conditions: for Peak Area % (280 nm), AMG 397 peak RRT 1.00: 1 mg/mL, room temperature
Method: The stability of AMG 397 was assessed in both THF and DCM over 24 hours to cover the processing time in the solvent. The stability was assessed in both amber and clear glass vials to assess the impact of light on stability.
Light had little impact on degradation up to 72 hours in DCM.

[2] = Solubility of AMG 397 in common spray-drying solvents; type: physicochemical
Method: Solvent selection: The solubility of AMG 397 was measured in solvents commonly used for spray drying. […] Based on the solubility data, tetrahydrofuran (THF) was selected as a solvent for the initial spray drying-work and further work was conducted in DCM.
AMG 397 is known to form solvates with many solvents. The formation of a solvate can lead to precipitation from solution due to the lower solubility in the solvent. Care must be taken to select a solvent and concentration of AMG 397 which can be maintained for the duration of the spray-drying process. The solubility of AMG 397 was highest in DCM where concentrations >100 mg/mL were achieved. Both DCM and THF are ICH class II solvents with residual solvent limits of 600 and 720 ppm, respectively. Therefore, the residual solvent levels must be removed to below these levels during the secondary drying process.

Peak Area % (280 nm), AMG 397 peak RRT 1.00 ([1]; DCM, 2 Hrs, Amber): 99.49%
Peak Area % (280 nm), AMG 397 peak RRT 1.00 ([1]; DCM, 2 Hrs, Clear): 99.47%
Peak Area % (280 nm), AMG 397 peak RRT 1.00 ([1]; DCM, 4 Hrs, Amber): 99.44%
Peak Area % (280 nm), AMG 397 peak RRT 1.00 ([1]; DCM, 4 Hrs, Amber (second 4 Hrs column)): 99.52%
Peak Area % (280 nm), AMG 397 peak RRT 1.00 ([1]; DCM, 24 Hrs, Amber): 99.44%
Peak Area % (280 nm), AMG 397 peak RRT 1.00 ([1]; DCM, 24 Hrs, Clear): 99.48%
Peak Area % (280 nm), AMG 397 peak RRT 1.00 ([1]; DCM, 72 Hrs, Amber): 99.13%
Peak Area % (280 nm), AMG 397 peak RRT 1.00 ([1]; DCM, 72 Hrs, Clear): 98.78%
Peak Area % (280 nm), AMG 397 peak RRT 1.00 ([1]; DCM, Initial): 99.52%
Stability in DCM ([1]; DCM, up to 24 hours at room temperature): stable
Peak Area % (280 nm), AMG 397 peak RRT 1.00 ([1]; THF, 2 Hrs, Amber): 99.41%
Peak Area % (280 nm), AMG 397 peak RRT 1.00 ([1]; THF, 2 Hrs, Clear): 98.98%
Peak Area % (280 nm), AMG 397 peak RRT 1.00 ([1]; THF, 4 Hrs, Amber): 99.51%
Peak Area % (280 nm), AMG 397 peak RRT 1.00 ([1]; THF, 4 Hrs, Clear): 97.51%
Peak Area % (280 nm), AMG 397 peak RRT 1.00 ([1]; THF, 24 Hrs, Amber): 98.62%
Peak Area % (280 nm), AMG 397 peak RRT 1.00 ([1]; THF, 24 Hrs, Clear): 92.68%
Peak Area % (280 nm), AMG 397 peak RRT 1.00 ([1]; THF, 72 Hrs, Amber): 97.20%
Peak Area % (280 nm), AMG 397 peak RRT 1.00 ([1]; THF, 72 Hrs, Clear): 90.59%
Peak Area % (280 nm), AMG 397 peak RRT 1.00 ([1]; THF, Initial): 99.52%
Stability in THF ([1]; THF, presence of light accelerated degradation): unstable
solubility ([2]; Dichloromethane (DCM)): > 100000 µg/mL
solubility ([2]; Tetrahydrofuran (THF)): 33500 µg/mL (≈ 43800 µM)
solubility ([2]; acetone, organic solvent or mixture, read-out: Solubility): 370 µg/mL (≈ 483 µM)
solubility ([2]; ethanol, organic solvent or mixture, read-out: Solubility): 150 µg/mL (≈ 196 µM)
solubility ([2]; ethyl acetate, organic solvent or mixture, read-out: Solubility): 750 µg/mL (≈ 980 µM)
solubility ([2]; methanol, organic solvent or mixture, read-out: Solubility): 90 µg/mL (≈ 118 µM)
solubility at 24 h ([2]; organic solvent or mixture, thermodynamic from solid, THF, after 24 hours, extended stirring at room temperature, solid precipitated, read-out: Final solubility in THF): 33500 µg/mL (≈ 43800 µM)
solubility ([2]; organic solvent or mixture, thermodynamic from solid, THF, before extended stirring, read-out: Solubility in THF, initially): > 50000 µg/mL
solubility ([2]; organic solvent or mixture, DCM, concentrations achieved, read-out: Solubility in DCM): > 100000 µg/mL
Solubility in THF in the presence of water ([2]; various ratios of THF-water): drops significantly
solubility ([2]; water, read-out: Solubility): 7 µg/mL (≈ 9.14 µM)
Structure (SMILES): CO[C@]1(CN2CCN3CCCC[C@@H]3C2)/C=C/C[C@H](C)[C@@H](C)S(=O)(=O)NC(=O)c2ccc3c(c2)N(C[C@@H]2CC[C@H]21)C[C@@]1(CCCc2cc(Cl)ccc21)CO3 [AMG 397, (1S,3′R,6′R,7′R,8′E,11'S,12′R)-6-chloro-7′-methoxy-11′,12′-dinethyl-7′-((9aR)-octahydro-2H-pyrido[1,2-a]pyrazin-2-ylmethyl)-3,4-dihydro-2H,15′H-spiro[naphthalene-1,22′-[20]oxa[13]thia[1,14]diazatetracyclo [14.7.2.0^3,6.0^19,24]pentacosa[8,16,18,24]tetraen]-15′-one 13′,13′-dioxide]
